Reference: US4279904A, “3-Amino-1-benzoxepine derivatives and their salts and pharmaceutical compositions thereof” (Kali-Chemie Pharma GmbH, priority 1979, dated 1981)

Legend:
[1] = Determination of the Acute Toxicity (acute seven-day toxicity); conditions: mouse, in vivo, ip, fasting white NMRI mouse, single i.p. dose
Procedure: The acute seven-day toxicity is determined by intraperitoneal administration of a single dose of the respective compound to a fasting white NMRI mouse. The LD50 -values are calculated via electronic data processing by a probit analysis as described in the book "Grundbegriffe der Biometrie" (Basic Biometrical Definitions) by L. Cavalli-Sforza, page 153 et seq., published by Gustav Fischer Verlag, Stuttgart, 1964.

[2] = system: gastric peristalsis; test: Testing of the Gastric Peristalsis (gastric pressure waves, narcotized rats); type: in vivo, rat; conditions: before vs after administration; for inhibition in vivo at 20 mg/kg: Rattus norvegicus, ip, read-out: Frequency Decrease in %; for Factor of the Increase in Amplitude: i.p., 20 mg/kg
Description: To determine the functioning of the gastric peristalsis, rats weighing about 200 g are narcotized by means of ketamine hydrochloride and xylazine. A catheter is introduced into the Vena jugularis of the narcotized rats and a tracheal catheter into the trachea. A stomach probe is inserted into their stomach and tied thereto. The probe is connected via a three-way cock with a Statham pressure imparting device (P 23 DB). The stomach is sealed off by a ligature at the pylorus and at the cardia. The stomach is filled with 3 ml of an 0.9% aqueous sodium chloride solution. The pressure waves produced by the stomach are continuously registered by a suitable recording device such as by a Watanabe Multicorder (MC 641). In order to determine the effect of the compounds to be tested, they are dissolved in physiological sodium chloride solution or are suspended in Tylose MH 50 solution. Said solutions or suspensions are administered intraperitoneally to the rats in a dose of 20 mg/kg. The amplitudes and frequencies of the pressure wave-like movements of the stomach as they occur before and after administration of the compound to be tested, are compared.
This effect in combination with a pronounced decrease in the frequencies of varying magnitude results in an improved food passage through the stomach.

Row | SMILES | LD50 at 168 h [1] [mg/kg] | inhibition in vivo at 20 mg/kg [2] [%] | Factor of the Increase in Amplitude [2]
1 | CC(C)NC1COc2ccccc2C(=O)C1 (racemic) [Compound 2, rac.-3-isopropylamino-3,4-dihydro-1-benzoxepin-5(2H)-one] | 183 | 16 | 2.6
2 | CC(C)N[C@@H]1COc2ccccc2[C@H](O)C1 (relative stereo) [C] | – | 13 | –
3 | CN(C)CCCNC1COc2ccccc2C(=O)C1 (racemic) [Compound 4, rac.-3-(γ-dimethylamino-propylamino)-3,4-dihydro-1-benzoxepin-5(2H)-one] | 272 | 25 | 3.7
4 | CN(C)CCCNC1COc2ccc(Cl)cc2C(=O)C1 (racemic) [Compound 6, rac.-3-(γ-dimethylamino-propylamino)-7-chloro-3,4-dihydro-1-benzoxepin-5(2H)-one] | 296 | 29 | 3.4
5 | CN[C@@H]1COc2ccccc2[C@H](O)C1 (relative stereo) [A] | 342 | – | –
6 | CN(C)[C@@H]1COc2ccccc2[C@H](O)C1 (relative stereo) [O] | – | 7 | –
7 | CCN(CC)[C@@H]1COc2ccccc2[C@H](O)C1 (relative stereo) [F] | 183 | – | –
8 | O[C@@H]1C[C@H](N2CCCC2)COc2ccccc21 (relative stereo) [K] | – | 10 | –
9 | O=C1CC(NCc2ccccc2)COc2ccccc21 (racemic) [Compound 3, rac.-3-benzylamino-3,4-dihydro-1-benzoxepin-5(2H)-one] | 253 | 7 | 3.6
10 | CN(C)C1COc2ccccc2C(=O)C1 (racemic) [Compound 5, rac.-3-dimethylamino-3,4-dihydro-1-benzoxepin-5(2H)-one] | 285 | 12 | 1.3
11 | CN(C)CCCN[C@@H]1COc2ccccc2[C@H](O)C1 (relative stereo) [E] | 664 | 32 | –
12 | O[C@@H]1C[C@H](NCc2ccccc2)COc2ccccc21 (relative stereo) [D] | 92 | 21 | –
13 | CCCCNC1COc2ccccc2C(=O)C1 (racemic) [Compound 7, rac.-3-(n-butylamino)-3,4-dihydro-1-benzoxepin-5(2H)-one] | – | 28 | 6.6
14 | CNC1COc2ccccc2C(=O)C1 (racemic) [Compound 1, rac.-3-methylamino-3,4-dihydro-1-benzoxepin-5(2H)-one] | 137 | 8 | 1.6
